Experiments:
Type in all cases: in vivo, C57BL6 mice
[1] = test system: 6-OHDA mouse model of Parkinson's disease; test: Studies C and D: amphetamine-induced ipsilateral rotations in the 6-OHDA mouse model; settings: day 21 after 6-OHDA (12 μg)
Experimental: (§1) To determine the oral efficacy of the compound of formula (I) in the 6-OHDA mouse model of Parkinson's disease.
(§2) 8-week-old C57BL6 male mice (obtained from ARC, Perth, Australia) were housed under a 12-h light cycle in a SPF climate-controlled facility with food and water provided ad libitum for two weeks prior to study initiation. For treatment with the compound of formula (I), mice were dosed via oral gavage. Ten (10) mice in each group were dosed at 3 or 1 mg/kg, starting the day before (24 hr prior) stereotaxic surgery, and then QD until sacrifice.
6-OHDA (Sigma) was prepared immediately prior to surgeries. A sterile saline (0.9%) solution containing ascorbic acid (0.2%) was used as the vehicle to dissolve 6-OHDA. […] In order to inject a final concentration of 12 μg into the right striatum, a working stock of 6 mg/ml was made injecting a final volume of 2 μl.
Mice were anaesthetized using ketamine (100 mg/kg, i.p.) and xylazine (10 mg/kg i.p.)
anesthesia and were placed into a stereotactic frame with nose and ear bars specially adapted for mice. The lesion was performed using a 5 μl Hamilton syringe to deliver either vehicle or 6-OHDA (12 μg) at the following coordinates relative to bregma: AP: −1.2 mm; ML: −1.7 mm; DV: 3.5 mm into the right dorsal striatum according to the stereotaxic atlas (“The mouse brain in stereotaxic coordinates” by Paxinos and Franklin, 1997). After drilling a 1 mm burr-hole in the skull, a 2 μl volume of solution was infused at the target site at the rate of 0.5 μl per minute. The needle was held in place for at least 5 minutes after injection to minimize retrograde flow along the needle tract. Mice were administered a subcutaneous injection of sterile Ringer's solution to is facilitate recovery and were placed on a heat-pad until complete recovery from anesthesia.
Amphetamine-induced ipsilateral rotations were performed at day 21 post-surgery. Mice were injected with 2 mg/kg of D-amphetamine and placed in circular glass bowls.
After an acclimatization period of five minutes, the net ipsilateral rotations over ten minutes were recorded and counted. Quantitation was performed from recorded videos by an investigator blinded to the treatment groups.
The aim of study D was to compare the neuroprotective efficacy of the compound of formula (I) with MCC95o in the mouse unilateral 6-OHDA model at 3 mg/kg. The amphetamine-induced ipsilateral rotations and striatal dopamine (DA) levels were assessed, using a protocol identical to that used for study C, with ten (10) mice in each group being dosed at 3 mg/kg for each drug, starting the day before (24 hr prior) stereotaxic surgery, and then daily throughout until sacrifice.

[2] = test system: 6-OHDA mouse model of Parkinson's disease; test: Studies C and D: LC-MS/MS quantification of striatal dopamine and metabolites in the 6-OHDA mouse model; settings: 28 days after the 6-OHDA lesion
Experimental: as §1, §2
6-OHDA (Sigma) was prepared immediately prior to surgeries. A sterile saline (0.9%) solution containing ascorbic acid (0.2%) was used as the vehicle to dissolve 6-OHDA. […]
Mice were sacrificed 1 week after the amphetamine test (day 28) and striatal tissue was micro-dissected, weighed and snap-frozen at −80° C. […] Striatal dopamine (DA) and its metabolites (DOPAC and HVA) were quantified in their stable derivative 3o form in the presence of internal standard 3,4-dihydroxybenzylamine (DHBA) using highly sensitive liquid chromatography-tandem mass spectrometry (LC-MS/MS) as described previously (Park et al., Biol. Pharm. Bull., 2013, vol. 36, pp. 252-8). […] For quantitation, one transition per analyte was monitored and two transitions per analyte were monitored for qualitative purposes. […]

[3] = test system: PFF-Synuclein model of Parkinson's disease; test: Study H: rotarod test in the PFF-Synuclein mouse model; settings: 4, 6, 8 and 10 months
Source text: To determine the oral efficacy of the compound of formula (I) in a chronic progressive model of Parkinson's disease (PD), the preformed fibrils (PFF) mouse model, using a prophylactic and therapeutic dosing schedule.
8-week-old C57BL6 male mice (obtained from ARC, Perth, Australia) were housed under a 12-h light cycle in a SPF climate-controlled facility with food and water provided ad libitum for two weeks prior to study initiation. The compound of formula (I) (or water alone for control animals) was administrated to mice in drinking water at 0.3 mg/ml. Animals were separated into the groups described in Table 9, with ten animals initiated in each cohort. […]
Recombinant human a-synuclein was obtained from rPeptide Inc., and in vitro fibril generation was performed with a final concentration of 2 mg/ml in phosphate-buffered saline (PBS) by incubation at 37° C. with agitation in an orbital mixer (400 rpm) for 7 days with daily cycles of sonication used to break down fibrillar aggregates as outlined in previously published reports (see Luk et al., Science, 2012, vol. 338(6109), pp. 949-53; and Zhang et al., Methods Mol. Biol., 2019, vol. 1948, pp. 45-57, which are incorporated in their entirety herein by reference). The generation of fibrillar α-synuclein species was confirmed by transmission electron microscopy and Thioflavin T fluorescence prior to use. […]

CC(C)n1ccc(S(=O)(=O)NC(=O)Nc2c3c(cc4c2CCC4)CCC3)n1 [compound of formula (I)]
amphetamine-induced ipsilateral rotations ([1]; Study C, 3 mg/kg oral gavage QD from 24 hr before surgery): significant protective effect
amphetamine-induced ipsilateral rotations ([1]; Study D, 3 mg/kg oral daily): fewer ipsilateral rotations compared to MCC950
reduction in amphetamine-induced rotations relative to the 6-OHDA untreated group ([1]; Study D, 3 mg/kg oral daily): 75%
striatal dopamine (with metabolites DOPAC and HVA) ([2]; Study C, 3 mg/kg oral QD): significantly protected against the loss of dopamine
striatal dopamine ([2]; Study D, 3 mg/kg oral daily): significantly protected against the loss of dopamine with improved efficacy compared to MCC950
performance on the rotarod ([3]; prophylactic: 0.3 mg/ml in drinking water from 24 h before PFF injection): improved performance on the rotarod
performance on the rotarod ([3]; therapeutic: 0.3 mg/ml in drinking water from 4 months after PFF injection): improved performance on the rotarod

Reference: patent publication US20220401414A1, “TREATMENT AND PREVENTION OF A NEURODEGENERATIVE DISORDER” (Inflazome Limited, priority 2019, published 2022)
